What all share (test): relative viability (nuclei count vs DMSO), 5 days (fraction); higher = more cells survive
Compound in the experiment “Selisistat + Crizotinib”: C1CC(C2=C(C1)C3=C(N2)C=CC(=C3)Cl)C(=O)N [Selisistat] + C[C@@H](Oc1cc(-c2cnn(C3CCNCC3)c2)cnc1N)c1c(Cl)ccc(F)c1Cl [Crizotinib] (partner 1 µM)
The essentials: (§1)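 Nuclei were stained with Hoechst during a one-step fixation (final 0.05% Triton X-100, 1% formaldehyde, 1 ug/ml Hoechst) carried out 5 days after dosing, then counted on 4× images. The cells, lung cancer lines in 1536-well plates, had been dosed by pin tool the day after seeding with one drug alone or a fixed anchor-drug dose plus five library-drug doses (not always all listed) in √10 steps. Relative viability is the nuclei count in treated wells divided by that in vehicle wells, and each value is the median of duplicate plates.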

Compound in the experiment “Serdemetan + Navitoclax”: c1ccc2c(CCNc3ccc(Nc4ccncc4)cc3)c[nH]c2c1 [Serdemetan] + CC1(C)CCC(c2ccc(Cl)cc2)=C(CN2CCN(c3ccc(C(=O)NS(=O)(=O)c4ccc(N[C@H](CCN5CCOCC5)CSc5ccccc5)c(S(=O)(=O)C(F)(F)F)c4)cc3)CC2)C1 [Navitoclax] (partner 0.5 µM)
The essentials: as §1

Compound in the experiment “Serdemetan + Dasatinib”: c1ccc2c(CCNc3ccc(Nc4ccncc4)cc3)c[nH]c2c1 [Serdemetan] + Cc1nc(Nc2ncc(C(=O)Nc3c(C)cccc3Cl)s2)cc(N2CCN(CCO)CC2)n1 [Dasatinib] (partner 0.075 µM)
An outline of the steps:
as §1

Compound in the experiment “Serdemetan + Luminespib”: c1ccc2c(CCNc3ccc(Nc4ccncc4)cc3)c[nH]c2c1 [Serdemetan] + CCNC(=O)c1noc(-c2cc(C(C)C)c(O)cc2O)c1-c1ccc(CN2CCOCC2)cc1 [Luminespib] (partner 0.01 µM)
An outline of the steps: as §1

Five cell lines from the supplement of paper PMC10307832 can be followed below.

On to PC-14, for which the relative viability stood at 0.834 with Selisistat + Crizotinib (first compound 0.4 µM); 0.877 with Selisistat + Crizotinib (first compound 1.265 µM); 0.991 in the experiment with Selisistat + Crizotinib (first compound 4 µM); 0.919 with Selisistat + Crizotinib (first compound 12.65 µM); 0.936 with Selisistat + Crizotinib (first compound 40 µM); 0.977 with Serdemetan + Navitoclax (first compound 0.04 µM). In addition, the relative viability with Serdemetan + Navitoclax (first compound 0.1265 µM) turned out to be 0.974; in the experiment with Serdemetan + Navitoclax (first compound 0.4 µM), 0.954; with Serdemetan + Navitoclax (first compound 1.265 µM), 0.923; in the experiment with Serdemetan + Navitoclax (first compound 4 µM), 0.697; in the experiment with Serdemetan + Dasatinib (first compound 0.04 µM), 0.262; in the experiment with Serdemetan + Dasatinib (first compound 0.1265 µM), 0.247. For the same cell line, the relative viability with Serdemetan + Dasatinib (first compound 0.4 µM) was found to be 0.115; with Serdemetan + Dasatinib (first compound 1.265 µM), 0.308; with Serdemetan + Dasatinib (first compound 4 µM), 0.147; with Serdemetan + Luminespib (first compound 0.04 µM) it was 0.129; in the experiment with Serdemetan + Luminespib (first compound 0.1265 µM) it was 0.163; with Serdemetan + Luminespib (first compound 1.265 µM), 0.149. Besides, the relative viability in the experiment with Serdemetan + Luminespib (first compound 4 µM) stood at 0.107.
On to RERF-LC-KJ, for which the relative viability in the experiment with Selisistat + Crizotinib (first compound 0.4 µM) was 0.826; with Selisistat + Crizotinib (first compound 1.265 µM), 0.879; with Selisistat + Crizotinib (first compound 4 µM), 0.835; with Selisistat + Crizotinib (first compound 12.65 µM) it was 0.771; with Selisistat + Crizotinib (first compound 40 µM), 0.716; with Serdemetan + Navitoclax (first compound 0.04 µM), 1.15. Moreover, the relative viability was 0.842 with Serdemetan + Navitoclax (first compound 0.1265 µM); 1.06 with Serdemetan + Navitoclax (first compound 0.4 µM); 0.805 with Serdemetan + Navitoclax (first compound 1.265 µM); 0.983 with Serdemetan + Navitoclax (first compound 4 µM); 0.837 in the experiment with Serdemetan + Dasatinib (first compound 0.04 µM); 0.788 in the experiment with Serdemetan + Dasatinib (first compound 0.1265 µM). The relative viability with Serdemetan + Dasatinib (first compound 0.4 µM) came out at 0.667; in the experiment with Serdemetan + Dasatinib (first compound 1.265 µM), 0.657; with Serdemetan + Dasatinib (first compound 4 µM), 0.69; with Serdemetan + Luminespib (first compound 0.04 µM), 1.43; with Serdemetan + Luminespib (first compound 0.1265 µM), 1.16; in the experiment with Serdemetan + Luminespib (first compound 0.4 µM), 1.17. Besides, the relative viability in the experiment with Serdemetan + Luminespib (first compound 1.265 µM) was found to be 1.1; with Serdemetan + Luminespib (first compound 4 µM), 1.12.
Take SK-LU-1: the relative viability with Selisistat + Crizotinib (first compound 0.4 µM) worked out at 1.02; in the experiment with Selisistat + Crizotinib (first compound 1.265 µM), 0.987; with Selisistat + Crizotinib (first compound 4 µM), 1.1; with Selisistat + Crizotinib (first compound 12.65 µM), 1.01; with Selisistat + Crizotinib (first compound 40 µM), 1.09; with Serdemetan + Navitoclax (first compound 0.04 µM), 0.809. Moreover, the relative viability with Serdemetan + Navitoclax (first compound 0.1265 µM) was 0.971; in the experiment with Serdemetan + Navitoclax (first compound 0.4 µM) it was 0.853; with Serdemetan + Navitoclax (first compound 1.265 µM), 0.705; in the experiment with Serdemetan + Navitoclax (first compound 4 µM) it was 0.639; with Serdemetan + Dasatinib (first compound 0.04 µM) it was 0.212; with Serdemetan + Dasatinib (first compound 0.1265 µM), 0.183. Besides, the relative viability with Serdemetan + Dasatinib (first compound 0.4 µM) came to 0.183; with Serdemetan + Dasatinib (first compound 4 µM), 0.179; with Serdemetan + Luminespib (first compound 0.04 µM) it was 0.19; in the experiment with Serdemetan + Luminespib (first compound 0.1265 µM), 0.201; with Serdemetan + Luminespib (first compound 0.4 µM), 0.223; with Serdemetan + Luminespib (first compound 4 µM), 0.207.
With SK-MES-1, the relative viability with Selisistat + Crizotinib (first compound 0.4 µM) is 1.12; with Selisistat + Crizotinib (first compound 1.265 µM), 0.993; with Selisistat + Crizotinib (first compound 4 µM) it was 1.05; with Selisistat + Crizotinib (first compound 12.65 µM), 0.875; with Selisistat + Crizotinib (first compound 40 µM) it was 0.959; in the experiment with Serdemetan + Navitoclax (first compound 0.04 µM) it was 1.21. Also, the relative viability with Serdemetan + Navitoclax (first compound 0.1265 µM) worked out at 1.24; with Serdemetan + Navitoclax (first compound 0.4 µM) it was 1.25; with Serdemetan + Navitoclax (first compound 1.265 µM), 0.917; with Serdemetan + Navitoclax (first compound 4 µM) it was 0.551; with Serdemetan + Dasatinib (first compound 0.04 µM), 0.337; with Serdemetan + Dasatinib (first compound 0.1265 µM), 0.378. For the same cell line, the relative viability with Serdemetan + Dasatinib (first compound 0.4 µM) was 0.327; with Serdemetan + Dasatinib (first compound 1.265 µM), 0.379; with Serdemetan + Dasatinib (first compound 4 µM), 0.267; in the experiment with Serdemetan + Luminespib (first compound 0.04 µM) it was 0.789; in the experiment with Serdemetan + Luminespib (first compound 0.1265 µM), 0.731; with Serdemetan + Luminespib (first compound 0.4 µM), 0.799. Moreover, the relative viability with Serdemetan + Luminespib (first compound 1.265 µM) was determined as 0.617; in the experiment with Serdemetan + Luminespib (first compound 4 µM), 0.772.
Regarding SW 1573, the relative viability is 0.841 with Selisistat + Crizotinib (first compound 0.4 µM); 0.791 with Selisistat + Crizotinib (first compound 1.265 µM); 0.8 in the experiment with Selisistat + Crizotinib (first compound 4 µM); 0.922 in the experiment with Selisistat + Crizotinib (first compound 12.65 µM); 0.751 with Selisistat + Crizotinib (first compound 40 µM); 0.898 in the experiment with Serdemetan + Navitoclax (first compound 0.04 µM). The relative viability is 0.876 with Serdemetan + Navitoclax (first compound 0.1265 µM); 1.02 in the experiment with Serdemetan + Navitoclax (first compound 0.4 µM); 0.303 with Serdemetan + Navitoclax (first compound 1.265 µM); 0.105 with Serdemetan + Navitoclax (first compound 4 µM); 0.452 in the experiment with Serdemetan + Dasatinib (first compound 0.04 µM); 0.488 in the experiment with Serdemetan + Dasatinib (first compound 0.1265 µM). In addition, the relative viability with Serdemetan + Dasatinib (first compound 0.4 µM) is 0.511; with Serdemetan + Dasatinib (first compound 1.265 µM), 0.396; with Serdemetan + Dasatinib (first compound 4 µM), 0.217; in the experiment with Serdemetan + Luminespib (first compound 0.04 µM), 0.343; in the experiment with Serdemetan + Luminespib (first compound 0.1265 µM), 0.161; with Serdemetan + Luminespib (first compound 0.4 µM), 0.215. Also, the values for the relative viability in the experiment with Serdemetan + Luminespib (first compound 1.265 µM) and with Serdemetan + Luminespib (first compound 4 µM) were 0.113 and 0.192, respectively.
